Measurements published in patent US20230064983A1 (priority 2020, published 2023).
Values joined by “and” are separate entries in the source; they are usually repeats but may differ in a detail not shown here. Equal entries are not always repeated. Where two headings read alike, the source gives them in different places.

How the values were obtained:
[1] = target: Ba/F3-EGFR-WT cells (Homo sapiens, UniProt P00533); assay: Ba/F3 cell survival assay, wild type EGFR; format: cell-based; settings: Cell Titer-Glo, 48 h, with 10 ng/mL EGF; Table 4; read-out: BA/F3 (wild type) IC50
Chain of Ba/F3-EGFR-WT cells (P00533 whole entry, looked up, change not shown): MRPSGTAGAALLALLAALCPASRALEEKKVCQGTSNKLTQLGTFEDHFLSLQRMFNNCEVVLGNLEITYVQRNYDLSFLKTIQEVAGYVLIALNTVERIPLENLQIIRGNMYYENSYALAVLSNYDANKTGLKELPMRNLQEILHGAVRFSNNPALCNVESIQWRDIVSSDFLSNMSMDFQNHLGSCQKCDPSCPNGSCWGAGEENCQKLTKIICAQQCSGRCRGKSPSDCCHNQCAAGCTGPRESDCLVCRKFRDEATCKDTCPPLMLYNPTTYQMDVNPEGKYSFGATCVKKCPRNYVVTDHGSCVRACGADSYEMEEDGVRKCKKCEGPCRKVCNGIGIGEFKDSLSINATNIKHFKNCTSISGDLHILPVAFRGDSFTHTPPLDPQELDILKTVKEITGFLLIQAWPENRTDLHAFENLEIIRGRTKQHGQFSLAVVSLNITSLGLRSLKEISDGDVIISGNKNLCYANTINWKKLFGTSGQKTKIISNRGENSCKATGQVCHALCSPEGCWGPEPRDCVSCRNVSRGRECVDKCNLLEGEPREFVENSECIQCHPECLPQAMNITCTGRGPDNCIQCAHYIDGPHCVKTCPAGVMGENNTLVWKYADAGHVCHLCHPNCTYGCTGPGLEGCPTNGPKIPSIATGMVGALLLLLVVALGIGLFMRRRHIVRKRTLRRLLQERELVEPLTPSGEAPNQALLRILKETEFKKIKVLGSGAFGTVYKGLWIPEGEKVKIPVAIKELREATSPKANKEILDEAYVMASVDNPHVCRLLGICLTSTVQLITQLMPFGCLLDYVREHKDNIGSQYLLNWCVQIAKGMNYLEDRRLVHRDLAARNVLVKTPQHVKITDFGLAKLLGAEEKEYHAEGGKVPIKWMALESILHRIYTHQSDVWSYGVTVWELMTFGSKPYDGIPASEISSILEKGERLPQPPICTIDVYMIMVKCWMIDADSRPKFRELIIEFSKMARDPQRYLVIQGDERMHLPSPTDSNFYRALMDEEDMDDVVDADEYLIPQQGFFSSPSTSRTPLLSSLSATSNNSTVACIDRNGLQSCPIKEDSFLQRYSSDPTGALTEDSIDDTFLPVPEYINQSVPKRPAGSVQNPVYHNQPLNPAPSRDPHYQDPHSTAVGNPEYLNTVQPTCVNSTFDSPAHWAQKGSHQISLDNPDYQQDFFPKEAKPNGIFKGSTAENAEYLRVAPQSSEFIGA

[2] = target: T1, Bub1 (Homo sapiens, UniProt O43683); assay: Bub1 high ATP kinase assay (TR-FRET); format: biochemical; settings: 2 mM ATP, Table 3
T1 construct: catalytic domain of human Bub1 (amino acids 704-1085); His6 (N); made in house; host or cells: insect cells (Hi5)
T1 sequence (O43683 704-1085): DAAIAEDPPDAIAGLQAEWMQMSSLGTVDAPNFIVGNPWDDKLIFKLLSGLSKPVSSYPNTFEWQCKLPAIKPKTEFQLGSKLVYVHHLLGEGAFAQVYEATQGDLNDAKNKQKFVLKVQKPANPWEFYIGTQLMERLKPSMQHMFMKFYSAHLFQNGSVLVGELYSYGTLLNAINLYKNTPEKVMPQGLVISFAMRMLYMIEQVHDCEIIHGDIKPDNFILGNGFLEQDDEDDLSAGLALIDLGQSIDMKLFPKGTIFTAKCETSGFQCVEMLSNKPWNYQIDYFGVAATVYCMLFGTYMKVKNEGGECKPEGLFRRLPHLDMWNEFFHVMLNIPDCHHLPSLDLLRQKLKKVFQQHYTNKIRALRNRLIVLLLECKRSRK
Excerpt: Bub1 high ATP Kinase Assay
Bub1-inhibitory activity of compounds of the present invention at a high ATP concentration was quantified employing the Bub1 TR-FRET high ATP kinase assay as described in the following paragraphs.
N-terminally His6-tagged recombinant catalytic domain of human Bub1 (amino acids 704-1085), expressed in insect cells (Hi5) and purified by Ni-NTA affinity chromatography and subsequent size exclusion chromatography, was used as enzyme. As substrate for the kinase reaction the biotinylated peptide biotin-Ahx-[…] (C-terminus in amid form) was used which can be purchased e.g. form the company Biosyntan (Berlin, Germany).
Then the kinase reaction was started by the addition of 2 μl of a solution of Bub1 in assay buffer and the resulting mixture was incubated for a reaction time of 60 min at 22° C. The concentration of Bub1 was adjusted depending of the activity of the enzyme lot and was chosen appropriate to have the assay in the linear range, a typical concentration is about 200 ng/ml. The reaction was stopped by the addition of 3 μl of a solution of TR-FRET detection reagents (0.167 μM streptavidine-XL665 [Cisbio Bioassays, Codolet, France] and 1.67 nM anti-phosho-Serine antibody [Merck Millipore, cat. #35-002] and 0.67 nM LANCE EU-W1024 labeled anti-mouse IgG antibody [Perkin-Elmer, product no. AD0077, as an alternative a Terbium-cryptate-labeled anti-mouse IgG antibody from Cisbio Bioassays can be used]) in an aqueous EDTA-solution (83.3 mM EDTA, 0.2% (w/v) bovine serum albumin in 100 mM HEPES pH 7.5).
The resulting mixture was incubated 1 h at 22° C. to allow the formation of complex between the phosphorylated biotinylated peptide and the detection reagents. Subsequently the amount of phosphorylated substrate was evaluated by measurement of the resonance energy transfer from the Eu-chelate to the streptavidine-XL. Therefore, the fluorescence emissions at 620 nm and 665 nm after excitation at 350 nm was measured in a TR-FRET reader, e.g. a Pherastar or Pherastar FS (both from BMG Labtechnologies, Offenburg, Germany) or a Viewlux (Perkin-Elmer). The ratio of the emissions at 665 nm and at 622 nm was taken as the measure for the amount of phosphorylated substrate.

[3] = target: T2, EGFR with insertion SVD between D770 and N771 (mutEGFR D770_N771insSVD) (Homo sapiens, UniProt P00533, DUP768-770); assay: Exon20-Mutant-EGFR(D770_N771insSVD) kinase assay (TR-FRET); format: biochemical; settings: 2 mM ATP, Table 2
T2 construct: amino acids R669 to A1210; made in house; host or cells: Sf9 insect cells (baculovirus)
T2 sequence (P00533 other isoform, or with tags, fused parts or gaps DUP768-770): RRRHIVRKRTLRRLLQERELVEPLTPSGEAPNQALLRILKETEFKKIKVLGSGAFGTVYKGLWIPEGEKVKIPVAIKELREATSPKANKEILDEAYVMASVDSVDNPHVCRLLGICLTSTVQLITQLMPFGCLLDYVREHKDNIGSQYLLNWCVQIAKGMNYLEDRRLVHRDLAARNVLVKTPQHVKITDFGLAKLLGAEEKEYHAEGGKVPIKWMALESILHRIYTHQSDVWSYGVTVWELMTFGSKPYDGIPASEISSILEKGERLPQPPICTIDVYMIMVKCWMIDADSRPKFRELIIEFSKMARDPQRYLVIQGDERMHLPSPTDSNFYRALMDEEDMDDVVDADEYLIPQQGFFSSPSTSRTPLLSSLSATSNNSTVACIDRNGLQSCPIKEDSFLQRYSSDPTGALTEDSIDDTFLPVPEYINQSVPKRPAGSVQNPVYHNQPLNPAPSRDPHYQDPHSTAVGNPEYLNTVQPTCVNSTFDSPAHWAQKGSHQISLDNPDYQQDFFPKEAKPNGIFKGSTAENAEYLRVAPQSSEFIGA

[4] = target: Ba/F3-EGFR-D770_N771insSVD cells (Homo sapiens, UniProt P00533, DUP768-770, cells depend on it); assay: Ba/F3 cell survival assay, EGFR D770_N771insSVD; format: cell-based; settings: Cell Titer-Glo, 48 h, without IL-3; Table 4; read-out: BA/F3 (insSVD) IC50
Chain of Ba/F3-EGFR-D770_N771insSVD cells (P00533 with tags, fused parts or gaps DUP768-770): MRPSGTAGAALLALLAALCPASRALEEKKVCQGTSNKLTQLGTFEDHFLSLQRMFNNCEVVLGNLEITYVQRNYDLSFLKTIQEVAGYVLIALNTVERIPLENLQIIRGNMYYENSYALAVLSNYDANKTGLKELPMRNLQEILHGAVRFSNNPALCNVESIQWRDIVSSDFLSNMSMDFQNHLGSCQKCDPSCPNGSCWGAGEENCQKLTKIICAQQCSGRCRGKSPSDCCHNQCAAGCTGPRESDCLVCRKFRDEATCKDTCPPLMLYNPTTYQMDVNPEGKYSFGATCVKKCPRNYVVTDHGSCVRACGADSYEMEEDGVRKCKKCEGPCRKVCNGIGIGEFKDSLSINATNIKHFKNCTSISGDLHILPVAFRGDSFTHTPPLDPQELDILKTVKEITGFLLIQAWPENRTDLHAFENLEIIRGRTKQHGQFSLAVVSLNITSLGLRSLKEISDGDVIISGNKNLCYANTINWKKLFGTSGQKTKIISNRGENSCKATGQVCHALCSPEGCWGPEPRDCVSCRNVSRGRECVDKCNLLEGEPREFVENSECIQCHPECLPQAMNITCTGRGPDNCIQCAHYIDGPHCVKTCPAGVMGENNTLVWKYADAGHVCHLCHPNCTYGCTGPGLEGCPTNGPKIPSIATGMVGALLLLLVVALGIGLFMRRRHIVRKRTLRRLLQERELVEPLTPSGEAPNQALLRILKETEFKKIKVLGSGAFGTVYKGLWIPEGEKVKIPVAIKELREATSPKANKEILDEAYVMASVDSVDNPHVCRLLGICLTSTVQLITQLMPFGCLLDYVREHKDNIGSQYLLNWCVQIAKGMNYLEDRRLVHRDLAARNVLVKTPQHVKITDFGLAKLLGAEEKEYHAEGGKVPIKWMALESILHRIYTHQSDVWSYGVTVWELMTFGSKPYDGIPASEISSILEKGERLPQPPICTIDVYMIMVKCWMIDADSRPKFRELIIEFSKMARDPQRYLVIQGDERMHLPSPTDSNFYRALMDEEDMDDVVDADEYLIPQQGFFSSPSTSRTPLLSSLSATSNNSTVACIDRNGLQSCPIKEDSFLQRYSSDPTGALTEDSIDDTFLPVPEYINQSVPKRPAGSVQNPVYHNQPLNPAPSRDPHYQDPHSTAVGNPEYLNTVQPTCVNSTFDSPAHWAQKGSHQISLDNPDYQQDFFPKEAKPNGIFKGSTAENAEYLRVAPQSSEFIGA

[5] = Bub1 high ATP (2 mM) IC50, TR-FRET
[6] = read-out: Bub1 high ATP (2 mM) IC50, TR-FRET

SMILES | IC50 [2, 5] | mutEGFR (D770_N771insSVD) kinase assay IC50 [3] | IC50 [2, 6] [nM] | GI50 [1] [nM] | GI50 [4] [nM]
COc1c(Cl)cccc1Nc1c(-c2ccncc2OCC2COCCO2)[nH]c2c1C(=O)N[C@H](C)C2 (mixture of isomers) [Example 24, (6R)-3-(3-chloro-2-methoxy-anilino)-2-[3-(1,4-dioxan-2-ylmethoxy)-4-pyridyl]-6-methyl-1,5,6,7-tetrahydropyrrolo[3,2-c]pyridin-4-one] | 3480 nM | 0.111 nM and <0.0725 nM | – | 500 | 20.8
COc1c(Cl)cccc1Nc1c(-c2ccncc2OC[C@@H]2CCCO2)[nH]c2c1C(=O)NCC2CCO (single isomer, unassigned) [Example 17] | > 20000 nM | 0.238 nM | – | 1580 | 230
COc1c(Cl)cccc1Nc1c(-c2ccncc2OCC2(C)CCO2)[nH]c2c1C(=O)NCC2CCO (centres unmarked) [Example 19, 3-(3-chloro-2-methoxyanilino)-7-(2-hydroxyethyl)-2-{3-[(2-methyloxetan-2-yl)methoxy]pyridin-4-yl}-1,5,6,7-tetrahydro-4H-pyrrolo[3,2-c]pyridin-4-one] | 13500 nM | 0.279 nM | – | 684 | 86.5
COc1c(Cl)cccc1Nc1c(-c2ccncc2OC[C@@H]2CCCO2)[nH]c2c1C(=O)N[C@@H]1CCC[C@H]21 [Example 56, (5aR,8aS)-3-(3-chloro-2-methoxyanilino)-2-(3-{[(2S)-oxolan-2-yl]methoxy}-4-pyridyl)-5,5a,6,7,8,8a-hexahydrocyclopenta[b]pyrrolo[2,3-d]pyridin-4(1H)-one] | 18500 nM and 18800 nM and > 20000 nM | 0.194 nM | – | 693 | 51.5
COc1c(Cl)cccc1Nc1c(-c2ccncc2OC[C@@H]2CCCO2)[nH]c2c1C(=O)NCC2C (mixture of isomers) [Example 30, 3-(3-chloro-2-methoxy-anilino)-7-methyl-2-(3-{[(2S)-tetrahydrofuran-2-yl]methoxy}-4-pyridyl)-1,5,6,7-tetrahydropyrrolo[3,2-c]pyridin-4-one] | 11300 nM | 0.147 nM | – | 606 | 44
COc1c(Cl)cccc1Nc1c(-c2ccncc2OCC2CCCCO2)[nH]c2c1C(=O)N[C@H](C)C2 (mixture of isomers) [Example 27, (6R)-3-(3-chloro-2-methoxy-anilino)-6-methyl-2-[3-(tetrahydropyran-2-ylmethoxy)-4-pyridyl]-1,5,6,7-tetrahydropyrrolo[3,2-c]pyridin-4-one] | > 5700 nM | 0.0973 nM | – | 305 | 12
COc1c(Cl)cccc1Nc1c(-c2ccncc2OCC(C)(C)OC)[nH]c2c1C(=O)NCC2CCO (single isomer, unassigned) [Example 14, 3-(3-chloro-2-methoxyanilino)-7-(2-hydroxyethyl)-2-[3-(2-methoxy-2-methylpropoxy)pyridin-4-yl]-1,5,6,7-tetrahydro-4H-pyrrolo[3,2-c]pyridin-4-one] | 5390 nM | 0.139 nM | – | 262 | 21
COc1c(Cl)cccc1Nc1c(-c2ccncc2OC[C@@H]2CCO2)[nH]c2c1C(=O)N[C@@H](C)C2 [Example 7, (6S)-3-(3-chloro-2-methoxyanilino)-6-methyl-2-(3-{[(2S)-oxetan-2-yl]methoxy}pyridin-4-yl)-1,5,6,7-tetrahydro-4H-pyrrolo[3,2-c]pyridin-4-one] | > 20000 nM | 0.0854 nM and <0.0725 nM | – | 384 | 25.7
COc1c(Cl)cccc1Nc1c(-c2ccncc2OC[C@@H]2CCCO2)[nH]c2c1C(=O)NCC2C (single isomer, unassigned) [Example 32] | 3640 nM | – | – | 737 | 52.7
COc1c(Cl)cccc1Nc1c(-c2ccncc2OCC2COCCO2)[nH]c2c1C(=O)N[C@H](C)C2 (single isomer, unassigned) [Example 25] | 5410 nM | 0.141 nM | – | 358 | 25.9

More lines, main results first:

IC50 [2, 5] | mutEGFR (D770_N771insSVD) kinase assay IC50 [3] | IC50 [2, 6] [nM] | SMILES | GI50 [1] [nM] | GI50 [4] [nM]
741 nM | 0.122 nM | – | COc1c(Cl)cccc1Nc1c(-c2ccncc2OCCC(C)OC)[nH]c2c1C(=O)N[C@H](C)C2 (single isomer, unassigned) [Example 122] | 506 | 23.8
3360 nM | 0.148 nM | – | Cc1c(Cl)cccc1Nc1c(-c2ccncc2OC[C@@H]2CCCO2)[nH]c2c1C(=O)NCC2C (mixture of isomers) [Example 58, 3-(3-chloro-2-methyl-anilino)-7-methyl-2-(3-{[(2S)-oxolan-2-yl]methoxy}pyridin-4-yl)-1,5,6,7-tetrahydropyrrolo[3,2-c]pyridin-4-one] | 1250 | 72.9
5130 nM | 0.3 nM | – | Cc1c(Cl)cccc1Nc1c(-c2ccncc2OCC2COCCO2)[nH]c2c1C(=O)NCC2C (single isomer, unassigned) [Example 68, 3-(3-chloro-2-methyl-anilino)-2-[3-(1,4-dioxan-2-ylmethoxy)-4-pyridyl]-7-methyl-1,5,6,7-tetrahydropyrrolo[3,2-c]pyridin-4-one] | 1380 | 63.7
> 5700 nM | 0.24 nM | – | COc1c(Cl)cccc1Nc1c(-c2ccncc2OCC2OCCCC2(F)F)[nH]c2c1C(=O)N[C@H](C)C2 (single isomer, unassigned) [Example 76] | 2440 | 177
– | 0.985 nM | > 20000 | COc1c(Cl)cccc1Nc1c(-c2ccncc2OCC2COC(C)(C)CO2)[nH]c2c1C(=O)NCC2C (single isomer, unassigned) [Example 96, 3-(3-chloro-2-methoxy-anilino)-2-[3-[(5,5-dimethyl-1,4-dioxan-2-yl)methoxy]-4-pyridyl]-7-methyl-1,5,6,7-tetrahydropyrrolo[3,2-c]pyridin-4-one] | 3430 | 381
– | 0.504 nM | > 20000 | COc1c(Cl)cccc1Nc1c(-c2ccncc2OCC2COC(C)(C)CO2)[nH]c2c1C(=O)NCC2C (single isomer, unassigned) [Example 95, 3-(3-chloro-2-methoxy-anilino)-2-[3-[(5,5-dimethyl-1,4-dioxan-2-yl)methoxy]-4-pyridyl]-7-methyl-1,5,6,7-tetrahydropyrrolo[3,2-c]pyridin-4-one] | 415 | 14.9
> 20000 nM | 0.334 nM | – | CCc1c(Cl)cccc1Nc1c(-c2ccncc2OC[C@@H]2CN(C)CCO2)[nH]c2c1C(=O)N[C@H](C)C2 [Example 91, (6R)-3-(3-chloro-2-ethylanilino)-6-methyl-2-(3-{[(2S)-4-methylmorpholin-2-yl]methoxy}pyridin-4-yl)-1,5,6,7-tetrahydro-4H-pyrrolo[3,2-c]pyridin-4-one] | 556 | 30.2
2670 nM | 0.131 nM | – | COc1c(Cl)cccc1Nc1c(-c2ccncc2OCC(C)OC)[nH]c2c1C(=O)N[C@H](C)C2 (mixture of isomers) [Example 80, (6R)-3-(3-chloro-2-methoxy-anilino)-2-[3-(2-methoxypropoxy)-4-pyridyl]-6-methyl-1,5,6,7-tetrahydropyrrolo[3,2-c]pyridin-4-one] | 628 | 19.9
13200 nM | 0.456 nM | – | COc1c(Cl)cccc1Nc1c(-c2ccncc2OC[C@@H]2COCCN2C)[nH]c2c1C(=O)NCC2CCO (single isomer, unassigned) [Example 115] | 5420 | –
